Laboratory results reported in patent US20260259169A1, “BETA-LACTAMASE SUBSTRATE COMPOUNDS AND ELECTROCHEMICAL DETECTION METHODS USING THEM” (priority 2023, published 2026).
Read-outs that look alike come from different tables or passages of the source.

Experiments:
[1] = tested on: bacteria strains that produce KPC/OXA-48; assay: Amperometric detection in blood culture; format: cell-based; conditions: 2.4 mM versus HMRZ-86 1.2 mM
Experimental: (§1) The possibility of the beta-lactamase substrate compounds to detect bacteria strains producing different beta-lactamases was tested for the reference HMRZ-86 of example 1 (at 1.2 mM) and the beta-lactamase substrate compound with R being 2-nitro-4-cyano of Example 1 (at 2.4 mM). […] Consequently, amperometric voltammetry of the negative control with ATCC should give an oxidation current of 0 nA for the measurement to be valid.

KPC = KPC (Klebsiella pneumoniae, UniProt Q9F663); assay: Amperometric measurement of oxidation current with KPC in TPTZ buffer; format: biochemical; conditions: for detection of the beta-lactamases (oxidation current): KPC concentrations detected: succinate buffer pH 5.5, KPC 239.4, 59.85, 9.975 and 4.985 ng/ml; for detection of the beta-lactamases (oxidation current): KPC concentrations detected / detection of the lowest tested concentration of KPC / detection of the highest concentration of KPC / detection of the beta-lactamase concentration of 9.975 ng/mL: 30 minutes at 37° C.; for detection of the lowest tested concentration of KPC / detection of the highest concentration of KPC: 6.0 mM substrate; for detection of the lowest tested concentration of KPC: KPC 59.85 ng/ml; for detection of the highest concentration of KPC: KPC 239.4 ng/ml; for detection of the beta-lactamase concentration of 9.975 ng/mL: KPC 9.975 ng/mL
Experimental: A medium comprising 1.2 mM of substrate in a succinate buffer of pH 5.5 was prepared for each of the 8 beta-lactamase substrate compounds (7 inventive ones and the HMRZ-86 reference one).
4 different samples to be analyzed were prepared, each comprising KPC as beta-lactamase in a standard 2,4,6-tri-2-pyridinyl-1,3,5-triazine (TPTZ) buffer but in different concentrations: 239.4, 59.85, 9.975 and 4.985 ng/ml (ng of KPC per mL of TPTZ buffer). The two first concentrations of KPC aim to determine the capacity of the derivative to detect the presence of beta-lactamase whereas the two lowest concentrations aim to address the limit of detection.
Each of the […] (in other words 32 combinations) and incubated for 30 minutes at 37° C. Next, an amperometric measurement was performed on all 32 of the incubated mediums, and the oxidation current was determined. The device used was a Metrohm Dropsens and the electrodes were Metrohm Dropsens SCPE 110 electrodes. The oxidation current is the maximum current value measured between 0.1 V and 0.5 V vs. Ag/AgCl.
To test the impact of the concentration of the beta-lactamase substrate compound on the possibility to detect beta-lactamases, a further medium comprising 2.4 mM of the beta-lactamase substrate compound with R being 2-nitro-4-cyanophenyl was prepared. […] The same four beta-lactamase concentrations as in Example 1 were tested (i.e. the same samples). The incubation and measurement were performed as in Example 1.
A medium comprising 6.0 mM of each substrate in a succinate buffer of pH 5.5 was prepared. 2 different samples to be analyzed were prepared, each comprising KPC as beta-lactamase type in a standard 2,4,6-tri-2-pyridinyl-1,3,5-triazine (TPTZ) buffer, but in different concentrations: 239.4 ng/ml and 59.85 ng/ml, respectively (ng of KPC per mL of TPTZ buffer). Each of the […] was added to each of the 2 mediums (in other words 6 combinations) and incubated for 30 minutes at 37° C. Next, an amperometric measurement was performed on all 6 of the incubated mediums, and the oxidation current was determined. The equipment used was the same as that of Example 1.

[2] = NMR stability study in relation to a 22 mM succinate buffer reference; format: physicochemical
Experimental: (§2) The stability of the beta-lactamase substrate compounds over time at different temperatures was tested the reference HMRZ-86 of example 1 (at 1.2 mM) and the beta-lactamase substrate compound with R being 2-nitro-4-cyano of Example 1 (at 2.4 mM).
The stability of both beta-lactamase substrate compounds was also tested in relation to a 22 mM succinate buffer reference. […] Contrary to the dimethylformamide (DMF) reference, the degradation in relation to the succinate buffer was similar for both substrate compounds, with the first degradation starting after 2 weeks at both temperatures.

[3] = tested on: bacteria strains that produce VIM type; assay: Amperometric detection in blood culture; format: cell-based; conditions: 2.4 mM versus HMRZ-86 1.2 mM
Experimental: as §1
The beta-lactamase with group β being CF3 (6.0 mM), as well as the reference HMRZ-86 (1.2 mM) were also tested with blood cultures comprising bacteria strains producing the carbapenemase KPC type, the metallo-beta-lactamase VIM type and the metallo-beta-lactamase NDM type, as well as a blood culture comprising no bacteria strains producing beta-lactamases (negative control ATCC).

[4] = NMR stability study in relation to a dimethylformamide (DMF) reference; format: physicochemical
Experimental: More particularly, when the degradation is determined by means of NMR measurements, a first sample comprising the beta-lactamase substrate compound according to the present disclosure and a second sample comprising the reference, e.g. DMF, are heated or cooled to a predefined temperature, after which the NMR measurement is performed on both samples (measurement at time=0). The same measurement is repeated on the samples after a predefined time (time=x), while their temperature is kept constant at the predefined temperature from time=0 to time=x. The difference of the integration of NMR measurement signals of both samples is determined by comparing between time=0 and time=x, thereby allowing to define the degree (percentage) of degradation of the beta-lactamase substrate compound at time=x.
as §2
The stability was tested by a NMR stability study. The degradation was measured by measuring the evolution of the integration of NMR measurement signals of the molecule in relation to a dimethylformamide (DMF) reference. The stability of the beta-lactamase substrate compound is expressed by the percentage of degradation in function of time.
The stability of all 3 beta-lactamase substrate compounds (R being 4-cyanophenyl, group β being H, CH3 and CF3, respectively), as well as the beta-lactamase having the same group R and a group β according to formula II was tested at 20° C. in DMF as reference.

CTXM = assay: Amperometric detection of beta-lactamase type producing bacteria strains; format: cell-based; conditions: 6.0 mM substrate, HMRZ-86 1.2 mM; qualitative
Experimental: (§3) The possibility to detect different beta-lactamase type producing bacteria strains was also tested. As reference, a reference medium comprising 1.2 mM beta-lactamase substrate compound HMRZ-86 was prepared as well.

OXA-58 = assay: as above; format: cell-based; conditions: 6.0 mM substrate, HMRZ-86 1.2 mM; qualitative
Experimental: as §3

OXA-40 = assay: as above; format: cell-based; conditions: 6.0 mM substrate, HMRZ-86 1.2 mM; qualitative
Experimental: as §3

OXA-48 = assay: as above; format: cell-based; conditions: 6.0 mM substrate, HMRZ-86 1.2 mM; qualitative
Experimental: as §3

**Q.** Which “oxidation current compared with HMRZ-86” value [1] does the source give for `CC(C)(ON=C(C(=O)NC1C(=O)N2C(C(=O)O)=C(C=Cc3ccc(C#N)cc3[N+](=O)[O-])CSC12)c1csc(N)n1)C(=O)O` (stereo not drawn) [2-nitro-4-cyano] here?
**A.** significantly higher

**Q.** What about the “detection of the beta-lactamases (oxidation current): KPC concentrations detected” value (KPC; 1.2 mM substrate) of the same molecule?
**A.** all 4 concentrations

**Q.** What about the “oxidation current compared with 1.2 mM HMRZ-86 reference” value (KPC; 2.4 mM substrate, 4 KPC concentrations) of the same molecule?
**A.** in line with these of the 1.2 mM HMRZ-86 reference

**Q.** And the “oxidation current compared with 1.2 mM HMRZ-86 reference, 2 highest beta-lactamase concentrations” value (KPC; 2.4 mM substrate, KPC 239.4 and 59.85 ng/ml)?
**A.** higher than the reference

**Q.** What about the “oxidation current on increasing the substrate concentration” value (KPC; 2.4 mM versus 1.2 mM substrate, 4 KPC concentrations) of the same molecule?
**A.** significantly increases the oxidation current

**Q.** What about the “time at which the first degradation starts” value ([2]; 4° C.) of the same molecule?
**A.** 2 weeks

**Q.** And the “time at which the first degradation starts” value ([2]; 20° C.)?
**A.** 2 weeks

**Q.** What about the “oxidation current compared with HMRZ-86” value [3] of the same molecule?
**A.** significantly higher

**Q.** Which results are given for `N#Cc1ccc(C=CC2=C(C(=O)O)N3C(=O)C(NC=O)C3SC2)cc1` (stereo not drawn) [H]?
**A.** detection of the lowest tested concentration of KPC (KPC): capable to detect; detection of the highest concentration of KPC (KPC): capable to detect; time of first signs of degradation [4]: 13 weeks; detection (oxidation current) (CTXM): capable of detecting; detection (oxidation current) (OXA-58): capable of detecting; detection (oxidation current) (OXA-40): capable of detecting; detection (oxidation current) (OXA-48): capable of detecting

**Q.** Which “oxidation current, compared among R groups with a single moiety at the para-position” value (KPC; 1.2 mM substrate, 4 KPC concentrations, FIG. 2) does the source give for `CC(C)(ON=C(C(=O)NC1C(=O)N2C(C(=O)O)=C(C=Cc3ccc(C#N)cc3)CSC12)c1csc(N)n1)C(=O)O` (stereo not drawn) [4-cyanophenyl] here?
**A.** highest oxidation currents

**Q.** And the degradation ([4]; 20° C., up to 26 weeks, DMF reference)?
**A.** no signs of degradation

**Q.** For `CC(C)(ON=C(C(=O)NC1C(=O)N2C(C(=O)O)=C(C=Cc3cc([N+](=O)[O-])cc([N+](=O)[O-])c3)CSC12)c1csc(N)n1)C(=O)O` (stereo not drawn) [3,5-dinitrophenyl], which “detection of the beta-lactamase concentration of 9.975 ng/mL” value (KPC; 1.2 mM substrate) is on record?
**A.** this was not the case

**Q.** With `CC(C)(ON=C(C(=O)NC1C(=O)N2C(C(=O)O)=C(C=Cc3ccc([N+](=O)[O-])c([N+](=O)[O-])c3)CSC12)c1csc(N)n1)C(=O)O` (stereo not drawn) [3,4-dinitrophenyl] as the molecule, how does the “detection of the beta-lactamase concentration of 9.975 ng/mL” value (KPC; 1.2 mM substrate) read?
**A.** could detect

**Q.** For `CC(C)(ON=C(C(=O)NC1C(=O)N2C(C(=O)O)=C(C=Cc3ccc(C#N)cc3C#N)CSC12)c1csc(N)n1)C(=O)O` (stereo not drawn) [2,4-dicyano], which “detection of the beta-lactamases (oxidation current): KPC concentrations detected” value (KPC; 1.2 mM substrate) is on record?
**A.** only the 2 highest concentrations were detected

**Q.** For `CC(=O)NC1C(=O)N2C(C(=O)O)=C(C=Cc3ccc(C#N)cc3)CSC12` (stereo not drawn) [CH3], which “detection of the lowest tested concentration of KPC” value (KPC) is on record?
**A.** only the “H” and “CF3” groups are capable to detect the lowest tested concentration

**Q.** And the “detection of the highest concentration of KPC” value (KPC)?
**A.** capable to detect

**Q.** What about the “time of first signs of degradation” value ([4]; 20° C., DMF reference, up to 26 weeks) of the same molecule?
**A.** 1 weeks

**Q.** And the “detection (oxidation current)” value (CTXM)?
**A.** detect OXA-48 type only

**Q.** And the “detection (oxidation current)” value (OXA-58)?
**A.** detect OXA-48 type only

**Q.** And the “detection (oxidation current)” value (OXA-40)?
**A.** detect OXA-48 type only

**Q.** And the “detection (oxidation current)” value (OXA-48)?
**A.** detect OXA-48 type only
